This is an account of results in patent US20110136776A1, “Copper(1)Chloride Complex of Nicotinic Acid and Pharmaceutical Compositions Containing the Same” (priority 2008, published 2011).

This test relates to fatigue. The note with it: all types of fatigue: unexplained fatigue, chronic fatigue syndrome, fibromyalgia.

Take “[CuCl (Nicotinic acid)2 H20]complex [The complex]”: the “Effect in chronic fatigue (muscle pain, physical activity, productivity, depression)” value is “relieved the muscle pain, increased the physical activity and productivity”.
